Laboratory results: patent US20240174684A1, “INHIBITORS OF cGAS ACTIVITY AS THERAPEUTIC AGENTS” (BELLBROOK LABS, LLC, priority 2021, published 2024)
Read-outs that look alike come from different tables or passages of the source.

Key:
[1] = Metabolic stability in human hepatocytes; type: in vitro ADME; conditions: read-out: Human MS Stability t1/2
Experimental: ADME studies: Compound A and the compounds of the disclosure were tested for aqueous solubility (KSOL), metabolic stability (human and mouse […]) and permeability (Caco-2 and/or MDR1-MDCK cells) to provide an initial indication of oral bioavailability.
The favorable physicochemical properties are reflected in promising results in in vitro ADME tests. […] Metabolic stability, which was routinely measured with mouse and human hepatocytes, is outstanding, with t, greater than 2 hours for all of the compounds of the disclosure in which it has been measured. Cell permeability was measured using MDCK cells expressing human MDR1 (P-glycoprotein) to assess passive permeability as well as active transport out of the cell. […] Numerous compounds in Table 1 meet these permeability criteria, which is consistent with their design for TPSA <140 Å^2 and increased lipophilicity.
The MDCK-MDR1 permeability A ->B is shown in Table 2 below, where A represents 5-10 cm/s×10^−6; B represents 1-5 cm/s×10^−6; and C represents <1 cm/ss×10^−6. The metabolic stability half time, in both mouse and human hepatocytes, is also shown in Table 2 below, where A′ represents 100-200 minutes; B′ represents 200-300 minutes; and C′ represents >300 minutes.

MDR1 (P-glycoprotein) = assay: MDCK-MDR1 permeability A→B; type: in vitro ADME, Canine; conditions: dog; MDCK cells expressing human MDR1, A→B; read-out: MDCK-MDR Permeability A→B
Procedure, shortened: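 Permeability measured apical-to-basolateral in MDCK cells expressing human MDR1, reported as binned ranges in cm/s×10^−6. Metabolic stability determined as half-life in mouse and human hepatocytes, reported as binned ranges in minutes.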

[2] = Pharmacokinetics in C57BL/6 female mice, IV and PO; type: in vivo; conditions: plasma; for AUC: read-out: AUC0-tidc
Experimental: The pharmacokinetic characteristics of Compound 5 (BBL-100455) were estimated in C57BL/6 female mice following intravenous (IV) bolus and oral (PO) administration.
In short, the compound of the disclosure at 0.6 mg/mL in PBS containing 5% MSO and 25% PEG-400 was administered by IV injection (3 mg/kg). For PO (30 mg/kg), the compound of the disclosure at 3 mg/mL in PBS containing 10% MSO and 50% PEG-400 was orally administered. At the given time points (0.083 h, 0.167 h, 0.25 h, 0.50 h 1 h, 2 h, 4 h, 7 h, 16 h and 24 h), blood samples were collected using heparinized calibrated pipettes. Samples were centrifuged at 15000 rpm for 10 min. Subsequently, blood plasma was collected from the upper layer. The plasma was frozen at −80° C. for later analysis. At 2 h. 7 h and 24 h, brain samples were collected and immediately stored at […] for later analysis.
The analytical curve was constructed using ten non-zero standards with Compound 5 (BBL-100455) concentration ranging from 1 to 2500 ng/ml in the blank plasma and brain tissue. A blank sample (matrix sample processed without internal standard) was used to exclude contamination. The linear regression analysis of BBL- 100455 was performed by plotting the peak area ratio (y) against the BBL-100455 concentrations (x) in ng/ml.
The individual and average compound 5 concentration-time data for IV and PO dosed groups are presented in FIG. 4 for plasma concentration. All PK parameters were estimated using non-compartmental analyses with Phoenix/WINONLIN.

[3] = tested on: IFN-β production in PBMCs; assay: IFNβ ELISA in human primary PBMCs; type: cell-based; conditions: PBMC
Procedure, shortened: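 Human primary PBMCs stimulated with dsDNA or cGAMP to trigger a cGAS/STING-dependent type I IFN response. Secreted IFNβ quantified by ELISA across a dose response to derive IC50 values.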

cGAS = cGAS (Homo sapiens, UniProt Q8N884); assay: Transcreener cGAS enzymatic assay (FP); type: biochemical
Procedure, shortened: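 Human cGAS (30 nm) inhibition, 60 min reactions, FP read-out, standard conditions 100 μM ATP and GTP plus 62.5 nM bp ISD. Also run at 1 mM ATP and GTP (physiological), with 200 μM MnCl2, and with mouse cGAS under standard conditions; IC50 reported.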

[4] = mouse, IV 3 mg/kg, C57BL/6 female mice
[5] = mouse, PO 30 mg/kg, C57BL/6 female mice

cGAS, sequence (Q8N884 whole entry): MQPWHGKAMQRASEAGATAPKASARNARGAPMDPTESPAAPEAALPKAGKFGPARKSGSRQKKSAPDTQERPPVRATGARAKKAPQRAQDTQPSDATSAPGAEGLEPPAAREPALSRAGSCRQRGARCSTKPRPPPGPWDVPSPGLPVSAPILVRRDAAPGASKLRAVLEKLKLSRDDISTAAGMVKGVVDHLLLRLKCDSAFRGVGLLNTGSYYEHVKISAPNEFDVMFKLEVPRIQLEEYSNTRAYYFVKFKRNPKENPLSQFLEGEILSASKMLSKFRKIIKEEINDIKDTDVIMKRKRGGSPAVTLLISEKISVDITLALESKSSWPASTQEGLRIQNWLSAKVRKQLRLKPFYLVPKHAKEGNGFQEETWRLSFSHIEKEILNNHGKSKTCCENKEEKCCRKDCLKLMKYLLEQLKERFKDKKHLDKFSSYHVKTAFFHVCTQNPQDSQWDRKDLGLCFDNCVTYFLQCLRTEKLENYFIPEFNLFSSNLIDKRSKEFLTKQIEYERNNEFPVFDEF

half-life [1]: 1.67 to 3.33 h
Papp A→B (MDR1 (P-glycoprotein)): 5 to 10 ×10⁻⁶ cm/s
Vss ([2]; IV 3 mg/kg, C57BL/6 female mice): 0.853 L/kg
bioavailability ([2]; female, C57BL/6, mouse, PO 30 mg/kg vs IV 3 mg/kg, bioavailability): 29.3%
AUC(0-inf) [2, 4]: 4860 ng·h/mL
clearance [2, 4]: 10.3 mL/min/kg
half-life [2, 4]: 2.3 h
AUC [2, 4]: 4630 ng·h/mL
AUC(0-inf) [2, 5]: 13600 ng·h/mL
CL/F [2, 5]: 36.8 mL/min/kg
Cmax [2, 5]: 2870 ng/mL
Tmax [2, 5]: 0.5 h
half-life [2, 5]: 2.25 h
AUC [2, 5]: 13600 ng·h/mL
IC50 (cGAS; high ATP and GTP (1 mM) to mimic physiological conditions, read-out: IC50 FP Physiological): 500 to 1000 nM
IC50 (cGAS; standard conditions: 100 μM ATP and GTP, 62.5 nM bp ISD, 60 minute reactions, read-out: IC50 FP Standard): 50 to 100 nM
Structure (SMILES): Cc1nc(N2C[C@@H](CC(=O)Nc3ccc(-c4ccccc4)cc3)C[C@H]2C(=O)O)c2oc3ccccc3c2n1 [Compound 5, (2S,4R)-4-(2-([1,1′-biphenyl]-4-ylamino)-2-oxoethyl)-1-(2-methylbenzofuro[3,2-d]pyrimidin-4-yl)pyrrolidine-2-carboxylic acid]
IC50 [3]: 1000 to 2500 nM
